Experimental data published in ChEMBL document CHEMBL3612007, “Novel inhibitors targeting PPM1D phosphatase potently suppress cancer cell proliferation” (Bioorg Med Chem, 2015).
Calls of active or inactive are those of the source. No cut-off for these calls is given here.

Columns and labels:
MCF7 [1] = assay: Inhibition of cell proliferation of human MCF7 cells incubated for 24 hrs; type: functional, cell-based; settings: MCF7, 24 h
MCF7 [2] = assay: Inhibition of cell proliferation of human MCF7 cells at > 20 uM incubated for 24 hrs; type: functional, cell-based
[3] = target: T1, Protein phosphatase 1A (Homo sapiens) (UniProt P35813); assay: Inhibition of His-tagged PPM1A (unknown origin) at 2 to 10 uM using Ac-TDDE(Nle)T(P)GY(P)VAT-NH2 substrate
T1 sequence (whole entry): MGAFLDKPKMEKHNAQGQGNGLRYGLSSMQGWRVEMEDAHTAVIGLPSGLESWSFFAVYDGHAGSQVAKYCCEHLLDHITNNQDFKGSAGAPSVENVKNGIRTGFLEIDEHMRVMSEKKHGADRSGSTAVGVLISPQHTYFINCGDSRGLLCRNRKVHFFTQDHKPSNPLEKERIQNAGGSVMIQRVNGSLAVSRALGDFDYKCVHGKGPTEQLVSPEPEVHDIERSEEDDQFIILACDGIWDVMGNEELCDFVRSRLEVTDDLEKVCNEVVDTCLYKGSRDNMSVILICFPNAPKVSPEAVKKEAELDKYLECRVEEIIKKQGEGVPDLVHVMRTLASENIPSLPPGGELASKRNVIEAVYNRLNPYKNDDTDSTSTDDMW

Homo sapiens [4] = species: Homo sapiens; assay: Inhibition of PP1 (unknown origin) at 2 to 10 uM using Ac-WGAKAKKT(P)PKAKK-NH2 substrate
Homo sapiens [5] = species: Homo sapiens; assay: Inhibition of PP2A (unknown origin) at 2 to 10 uM using Ac-TDDE(Nle)T(P)GY(P)VAT-NH2 substrate
NCI-H1299 [6] = assay: Inhibition of cell proliferation of human H1299 cells overexpressing HA-PPM1D at 5 to 20 incubated for 24 hrs; type: functional, cell-based
NCI-H1299 [7] = assay: Inhibition of cell proliferation of human H1299 cells at 5 to 20 incubated for 24 hrs; type: functional, cell-based
MCF7 [8] = assay: Induction of cell cycle arrest in human MCF7 cells assessed as increase in cell accumulation at G2/M phase incubated for 24 hrs by propidium iodide staining based flow cytometry; type: functional
MCF7 [9] = assay: Induction of cell cycle arrest in human MCF7 cells assessed as increase in cell accumulation at subG1 phase incubated for 24 hrs by propidium iodide staining based flow cytometry; type: functional
MCF7 [10] = assay: Induction of apoptosis in human MCF7 cells incubated for 24 hrs by Annexin-V staining based flow cytometry; type: functional, cell-based
MCF7 [11] = assay: Effect on PPM1D protein expression in UV irradiated human MCF7 cells by Western blotting method; type: functional, cell-based
Protein phosphatase 1D = target: T2, Protein phosphatase 1D (Homo sapiens, UniProt O15297); assay: Inhibition of His-tagged PPM1D (1 to 420 residues) (unknown origin) expressed in Escherichia coli BL21 (DE3) pLysS cells using Ac-VEPPLS(P)QETFSDLW-NH2 substrate
T2 sequence (O15297 whole entry): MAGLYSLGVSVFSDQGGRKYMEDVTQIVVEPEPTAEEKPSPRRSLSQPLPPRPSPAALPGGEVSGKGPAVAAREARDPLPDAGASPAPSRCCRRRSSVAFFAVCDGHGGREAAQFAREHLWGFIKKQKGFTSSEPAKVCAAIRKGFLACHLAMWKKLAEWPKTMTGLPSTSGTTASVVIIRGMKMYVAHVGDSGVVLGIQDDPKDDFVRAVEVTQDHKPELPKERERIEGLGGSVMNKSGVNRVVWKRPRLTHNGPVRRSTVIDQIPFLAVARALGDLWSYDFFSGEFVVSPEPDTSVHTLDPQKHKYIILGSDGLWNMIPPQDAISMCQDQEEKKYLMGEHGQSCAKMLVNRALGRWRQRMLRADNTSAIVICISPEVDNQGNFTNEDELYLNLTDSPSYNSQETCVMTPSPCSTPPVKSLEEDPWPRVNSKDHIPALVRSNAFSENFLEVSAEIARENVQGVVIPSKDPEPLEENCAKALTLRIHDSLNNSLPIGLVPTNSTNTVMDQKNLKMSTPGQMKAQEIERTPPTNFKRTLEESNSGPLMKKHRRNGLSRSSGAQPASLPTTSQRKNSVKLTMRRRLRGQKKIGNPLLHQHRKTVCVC

SMILES	IC50 (MCF7 [1])	inhibition (MCF7 [2])	inhibition [3]	inhibition (Homo sapiens [4])	inhibition (Homo sapiens [5])	inhibition (NCI-H1299 [6])	inhibition (NCI-H1299 [7])	Activity (MCF7 [8])	Activity (MCF7 [9])	Activity (MCF7 [10])	Activity (MCF7 [11])	IC50 (Protein phosphatase 1D)
CC[Si](CC)(CC)O[C@@H]1CCC[C@@H]2[C@@H]1C[C@H](O[Si](C)(C)C(C)(C)C)C[C@@]2(C)C(=O)O	7.4 µM	Active	inactive	inactive	inactive	Active	inactive	Active	Active	Active	inactive	
Cc1ncc(Cl)cc1NCc1ccc(C(=O)N[C@@H](CC2CCCC2)C(=O)NC2CC2)s1	9.5 µM					inactive	inactive					0.0863 µM
CC[Si](CC)(CC)O[C@@H]1CCC[C@@H]2[C@@H]1C[C@H](O[Si](C)(C)C(C)(C)C)C[C@@]2(C)CO	36.1 µM											
CC[Si](CC)(CC)O[C@@H]1C[C@H](C)C[C@@H]2[C@@H]1C[C@H](O[Si](C)(C)C(C)(C)C)[C@@H]1[C@](C)(CO)C[C@H](O)C[C@@]21C	26.9 µM											0.0869 µM
